Reference: EPA's CvTdb concentration-time database
Where “and” joins values, the source holds several entries; their conditions need not be identical. Identical values can stand only once.

Tests used:
Rat [1] = assay: concentration in plasma after dosing; conditions: dosed: Phenolphthalein, 25 mg/kg, iv, F344
Rat [2] = assay: concentration in plasma after dosing; conditions: 12 h; dosed: Phenolphthalein; 25 mg/kg; iv; Female; F344
Rat [3] = assay: concentration in plasma after dosing; conditions: dosed: Phenolphthalein, 25 mg/kg, iv, Male, F344
Rat [4] = assay: concentration in plasma after dosing; conditions: dosed: Phenolphthalein, 25 mg/kg, iv, Male, F344; remark: listed apart in the source
Rat [5] = assay: concentration in plasma after dosing; conditions: 16 h; dosed: Phenolphthalein; 25 mg/kg; iv; Female; F344
Rat [6] = assay: concentration in plasma after dosing; conditions: dosed: Phenolphthalein, 25 mg/kg, iv, Female, F344
Rat [7] = assay: concentration in plasma after dosing; conditions: dosed: Phenolphthalein, 25 mg/kg, iv, Female, F344; remark: listed apart in the source
Rat [8] = assay: concentration in plasma after dosing; conditions: dosed: Phenolphthalein, 25 mg/kg, iv, Female, F344; remark: listed apart in the source
Rat [9] = assay: concentration in plasma after dosing; conditions: dosed: Phenolphthalein, 25 mg/kg, iv, Male, F344; remark: listed apart in the source
Rat [10] = assay: concentration in plasma after dosing; conditions: dosed: Phenolphthalein, 25 mg/kg, iv, Female, F344; remark: listed apart in the source
Rat [11] = assay: concentration in plasma after dosing; conditions: 16 h; dosed: Phenolphthalein; 25 mg/kg; iv; Female; F344; remark: listed apart in the source
Rat [12] = assay: concentration in plasma after dosing; conditions: dosed: Phenolphthalein, 25 mg/kg, iv, Male, F344; remark: listed apart in the source
Rat [13] = assay: concentration in plasma after dosing; conditions: dosed: Phenolphthalein, 25 mg/kg, iv, Female, F344; remark: listed apart in the source
Rat [14] = assay: concentration in plasma after dosing; conditions: 16 h; dosed: Phenolphthalein; 25 mg/kg; iv; Male; F344
Rat [15] = assay: concentration in plasma after dosing; conditions: dosed: Phenolphthalein, 25 mg/kg, iv, Female, F344; remark: listed apart in the source
Rat [16] = assay: concentration in plasma after dosing; conditions: dosed: Phenolphthalein, 25 mg/kg, iv, Female, F344; remark: listed apart in the source
Rat [17] = assay: concentration in plasma after dosing; conditions: dosed: Phenolphthalein, 25 mg/kg, iv, Female, F344; remark: listed apart in the source
Rat [18] = assay: concentration in plasma after dosing; conditions: dosed: Phenolphthalein, 25 mg/kg, iv, Female, F344; remark: listed apart in the source
Rat [19] = assay: concentration in plasma after dosing; conditions: dosed: Phenolphthalein, 25 mg/kg, iv, Male, F344; remark: listed apart in the source
Rat [20] = assay: concentration in plasma after dosing; conditions: dosed: Phenolphthalein, 25 mg/kg, iv, Female, F344; remark: listed apart in the source
Rat [21] = assay: concentration in plasma after dosing; conditions: dosed: Phenolphthalein, 25 mg/kg, iv, Male, F344; remark: listed apart in the source
Rat [22] = assay: concentration in plasma after dosing; conditions: 16 h; dosed: Phenolphthalein; 25 mg/kg; iv; Male; F344; remark: listed apart in the source
Rat [23] = assay: concentration in plasma after dosing; conditions: dosed: Phenolphthalein, 25 mg/kg, iv, Female, F344; remark: listed apart in the source
Rat [24] = assay: concentration in plasma after dosing; conditions: dosed: Phenolphthalein, 25 mg/kg, iv, Male, F344; remark: listed apart in the source
Rat [25] = assay: concentration in plasma after dosing; conditions: dosed: Phenolphthalein, 25 mg/kg, iv, Male, F344; remark: listed apart in the source
Rat [26] = assay: concentration in plasma after dosing; conditions: dosed: Phenolphthalein, 25 mg/kg, iv, Male, F344; remark: listed apart in the source
Rat [27] = assay: concentration in plasma after dosing; conditions: dosed: Phenolphthalein, 25 mg/kg, iv, Male, F344; remark: listed apart in the source
Rat [28] = assay: concentration in plasma after dosing; conditions: dosed: Phenolphthalein, 25 mg/kg, iv, Female, F344; remark: listed apart in the source
Rat [29] = assay: concentration in plasma after dosing; conditions: dosed: Phenolphthalein, 25 mg/kg, iv, Female, F344; remark: listed apart in the source
Rat [30] = assay: concentration in plasma after dosing; conditions: dosed: Phenolphthalein, 25 mg/kg, iv, Male, F344; remark: listed apart in the source
Rat [31] = assay: concentration in plasma after dosing; conditions: dosed: Phenolphthalein, 25 mg/kg, iv, Male, F344; remark: listed apart in the source
Rat [32] = assay: concentration in plasma after dosing; conditions: dosed: Phenolphthalein, 25 mg/kg, iv, Male, F344; remark: listed apart in the source
rat [33] = assay: amount in expired air after dosing (umol); conditions: dosed: methanol, 100 mg/kg, iv, male, CDF(F344)/CrlBR
rat [34] = assay: concentration in blood after dosing; conditions: dosed: furan, inhalation, duration: 4 hr, male, Fischer-344

O=C1OC(c2ccc(O)cc2)(c2ccc(O[C@@H]3O[C@H](C(=O)O)[C@@H](O)[C@H](O)[C@H]3O)cc2)c2ccccc21 (stereo not given in full) [Phenolphthalein Glucuronide]
concentration in plasma [µg/mL], Rat [1]
Conditions | Female | Male
1 h | 6.22 | 13.2
2 h | 22.8 | 1.49
2.5 min | 26.6 | 4.74
3 h | 47.9 | 7.19
4 h | 50.6 | 4
5 h | 17.9 | 2.27
5 min | 49 | 22.3
6 h | 18.7 | 11.8
7 h | 35.3 | 4.35
8 h | 16.9 | 3.65
10 h | 11.9 | 5.44
12 h | 24.9 | 8.24
16 h | 8.19 | 9.21
20 h | 16.2 | 8.08
24 h | 9.27 | 6.21

Conditions | concentration in plasma [µg/mL]
Rat [2] | 14.8
Rat [5] | 21.5
Rat [11] | 8.15
Rat [14] | 7.18
Rat [22] | 37.5

Conditions | concentration in plasma [µg/mL]
Rat [3], 3 h | 32
Rat [3], 12 h | 10.5
Rat [4], 2.5 min | 2.32
Rat [4], 20 h | 8.55
Rat [6], 2 h | 16.3
Rat [6], 8 h | 22.7
Rat [7], 2.5 min | 10.4
Rat [7], 20 h | 8.67
Rat [8], 4 h | 18.4
Rat [8], 7 h | 19.5
Rat [9], 1 h | 19
Rat [9], 6 h | 35.9
Rat [10], 5 h | 16.9
Rat [10], 10 h | 13.3
Rat [12], 4 h | 23.3
Rat [12], 7 h | 13.1
Rat [13], 4 h | 14
Rat [13], 7 h | 13.7
Rat [15], 3 h | 39
Rat [15], 12 h | 18
Rat [16], 5 min | 3.25
Rat [16], 24 h | 5.14
Rat [17], 2.5 min | 15.1
Rat [17], 20 h | 9.5
Rat [18], 5 h | 16.5
Rat [18], 10 h | 11.3
Rat [19], 4 h | 8.24
Rat [19], 7 h | 14.4
Rat [20], 1 h | 9.08
Rat [20], 6 h | 15.2
Rat [21], 2 h | 7.95
Rat [21], 8 h | 9.11
Rat [23], 5 min | 69
Rat [23], 24 h | 14.7
Rat [24], 5 min | 21.1
Rat [24], 24 h | 5.33
Rat [25], 5 min | 23.7
Rat [25], 24 h | 6.1
Rat [26], 5 h | 10.9
Rat [26], 10 h | 10.7
Rat [27], 3 h | 6.59
Rat [27], 12 h | 17.3
Rat [28], 2 h | 14.6
Rat [28], 8 h | 17
Rat [29], 1 h | 22.3
Rat [29], 6 h | 8.56
Rat [30], 5 h | 8.04
Rat [30], 10 h | 11.3
Rat [31], 2 h | 22.6
Rat [31], 8 h | 18.6
Rat [32], 1 h | 18.7
Rat [32], 6 h | 10.7

O=C1OC(c2ccc(O)cc2)(c2ccc(O[C@@H]3O[C@H](C(=O)O)[C@@H](O)[C@H](O)[C@H]3O)cc2)c2ccccc21 (stereo not given in full) [Phenolphthalein glucuronide]
Rat [1], Male
Conditions | concentration in plasma [µg/mL]
2.5 min | 6.98
20 h | 8.9

O=C=O [carbon dioxide]
rat [33]
Conditions | amount in expired air
0.2199 h | 1.76
0.5362 h | 6.28
0.9412 h | 13.1
1.448 h | 25.8
1.93 h | 37.7
2.933 h | 81.5
4.445 h | 151
5.995 h | 221
8.01 h | 278
10.01 h | 322
12.03 h | 335
15.08 h | 344

c1ccoc1 [furan]
rat [34]
Conditions | concentration in blood
0.1053 h, 52 ppm | 0.111 µg/mL
0.1054 h, 52 ppm | 0.093 µg/mL
0.1745 h, 107 ppm | 0.142 µg/mL
0.3024 h, 107 ppm | 0.101 µg/mL
0.3025 h, 107 ppm | 0.0884 µg/mL
0.5398 h, 208 ppm | 0.0984 µg/mL
0.54 h, 208 ppm | 0.0823 µg/mL
0.7855 h, 208 ppm | 0.047 µg/mL
0.7856 h, 208 ppm | 0.0412 µg/mL
0.7857 h, 208 ppm | 0.0357 µg/mL
130 s, 107 ppm | 0.387 µg/mL and 0.348 µg/mL
131 s, 107 ppm | 0.309 µg/mL
132 s, 208 ppm | 0.945 µg/mL
133 s, 208 ppm | 0.772 µg/mL and 0.654 µg/mL
